Among the data in patent US8435980B2 (AbbVie Inc., priority 2009, dated 2013) are Ki values, retold here.

A word on the Ki: it is a dissociation constant, usually derived from enzyme kinetics or from competition with a known ligand. Read a high Ki as a looser hold on the target.

For the experiment, the target named is T1, Cdc7 (BEV coexpressed huCDC7/DBF4) (Homo sapiens, UniProt O00311).
T1 construct: made in house; host or cells: BEV (baculovirus expression vector) co-expression; insect cells are implied but no cell line is named
T1 sequence (O00311 whole entry): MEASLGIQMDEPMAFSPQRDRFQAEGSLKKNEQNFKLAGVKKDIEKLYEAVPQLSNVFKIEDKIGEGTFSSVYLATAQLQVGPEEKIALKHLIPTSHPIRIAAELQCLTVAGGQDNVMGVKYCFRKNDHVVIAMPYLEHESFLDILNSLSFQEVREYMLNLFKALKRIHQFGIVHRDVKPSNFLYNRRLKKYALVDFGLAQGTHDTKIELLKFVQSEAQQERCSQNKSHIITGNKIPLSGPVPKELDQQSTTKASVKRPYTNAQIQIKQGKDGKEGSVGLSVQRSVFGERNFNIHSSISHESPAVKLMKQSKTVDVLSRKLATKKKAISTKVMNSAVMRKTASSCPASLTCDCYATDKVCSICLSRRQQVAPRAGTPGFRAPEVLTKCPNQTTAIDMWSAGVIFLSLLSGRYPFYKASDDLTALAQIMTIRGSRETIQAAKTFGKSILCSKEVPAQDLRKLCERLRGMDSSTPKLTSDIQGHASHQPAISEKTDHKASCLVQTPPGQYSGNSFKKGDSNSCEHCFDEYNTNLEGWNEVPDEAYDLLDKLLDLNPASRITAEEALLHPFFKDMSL
T1 sequence (Q9UBU7 whole entry partner): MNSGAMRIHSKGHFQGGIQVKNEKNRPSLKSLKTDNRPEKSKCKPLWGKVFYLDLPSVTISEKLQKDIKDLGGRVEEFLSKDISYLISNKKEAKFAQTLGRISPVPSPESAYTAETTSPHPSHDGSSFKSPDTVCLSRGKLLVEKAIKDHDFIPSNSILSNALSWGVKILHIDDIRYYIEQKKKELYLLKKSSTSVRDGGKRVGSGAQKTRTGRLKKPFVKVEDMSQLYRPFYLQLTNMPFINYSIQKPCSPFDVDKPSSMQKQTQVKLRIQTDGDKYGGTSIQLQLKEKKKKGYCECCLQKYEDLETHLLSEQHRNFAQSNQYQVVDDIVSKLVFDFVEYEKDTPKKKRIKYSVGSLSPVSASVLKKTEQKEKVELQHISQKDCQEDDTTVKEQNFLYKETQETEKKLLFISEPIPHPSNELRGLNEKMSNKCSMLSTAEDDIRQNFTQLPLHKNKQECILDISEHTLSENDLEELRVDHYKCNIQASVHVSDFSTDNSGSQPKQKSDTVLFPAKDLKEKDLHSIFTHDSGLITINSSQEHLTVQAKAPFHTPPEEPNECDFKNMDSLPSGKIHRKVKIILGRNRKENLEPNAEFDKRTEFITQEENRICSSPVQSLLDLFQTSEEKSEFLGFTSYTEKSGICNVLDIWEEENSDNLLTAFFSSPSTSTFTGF
Kind of experiment: Cdc7 enzyme inhibition assay ([33P]ATP, biotinylated peptide substrate, FlashPlate). In kind it is biochemical. As to conditions: Table 3; enzyme inhibition data (Ki). How it is done:
Cdc7 (BEV coexpressed huCDC7/DBF4) is prepared internally. Cdc7 assays are conducted as follows with final concentrations as listed. […] Reactions are quenched after 1 hr by the addition of 90 μL stop buffer (50 mM EDTA, 2M NaCl). […] (Ki) for exemplary compounds.
As to `O=C(COc1ccccc1)NC1CCCC(Nc2cc(-c3c[nH]c4ncccc34)cc(Cl)n2)C1` (stereo not drawn) [Example 293, N-(3-{[6-chloro-4-(1H-pyrrolo[2,3-b]pyridin-3-yl)pyridin-2-yl]amino}cyclohexyl)-2-phenoxyacetamide], the Ki was less than 10 nM.

As for `O=C(NC1CCCC(Nc2cc(-c3c[nH]c4ncccc34)cc(Cl)n2)C1)c1cnccn1` (stereo not drawn) [Example 294, N-(3-{[6-chloro-4-(1H-pyrrolo[2,3-b]pyridin-3-yl)pyridin-2-yl]amino}cyclohexyl)pyrazine-2-carboxamide], the inhibition constant Ki was less than 10 nM.

For `O=C(NC1CCCC(Nc2cc(-c3c[nH]c4ncccc34)cc(Cl)n2)C1)C1CCN1` (stereo not drawn) [Example 295, N-(3-{[6-chloro-4-(1H-pyrrolo[2,3-b]pyridin-3-yl)pyridin-2-yl]amino}cyclohexyl)azetidine-2-carboxamide], the Ki was less than 10 nM.

`CC(C)(C)OC(=O)N1CCC1C(=O)NC1CCCC(Nc2cc(-c3c[nH]c4ncccc34)cc(Cl)n2)C1` (stereo not drawn) [Example 296, tert-butyl 2-[(3-{[6-chloro-4-(1H-pyrrolo[2,3-b]pyridin-3-yl)pyridin-2-yl]amino}cyclohexyl)carbamoyl]azetidine-1-carboxylate] displayed a Ki of less than 10 nM.

For `C=CCNC(=O)NC1CCC(Nc2cc(-c3c[nH]c4ncccc34)cc(Cl)n2)CC1` (stereo not drawn) [Example 297, 1-(4-{[6-chloro-4-(1H-pyrrolo[2,3-b]pyridin-3-yl)pyridin-2-yl]amino}cyclohexyl)-3-prop-2-en-1-ylurea], the Ki is less than 10 nM.

On to `Cn1cnc(S(=O)(=O)NCC(C)(C)CNc2cc(-c3c[nH]c4ncccc34)cc(Cl)n2)c1` [Example 298, N-(3-{[6-chloro-4-(1H-pyrrolo[2,3-b]pyridin-3-yl)pyridin-2-yl]amino}-2,2-dimethylpropyl)-1-methyl-1H-imidazole-4-sulfonamide], for which the Ki was less than 10 nM.

`O=S(=O)(NC1CCCC(Nc2cc(-c3c[nH]c4ncccc34)cc(Cl)n2)C1)c1ccco1` (stereo not drawn) [Example 299, N-(3-{[6-chloro-4-(1H-pyrrolo[2,3-b]pyridin-3-yl)pyridin-2-yl]amino}cyclohexyl)furan-2-sulfonamide] showed a Ki of less than 10 nM.

The compound `O=S(=O)(NC1CCCC(Nc2cc(-c3c[nH]c4ncccc34)cc(Cl)n2)C1)c1cccnc1` (stereo not drawn) [Example 300, N-(3-{[6-chloro-4-(1H-pyrrolo[2,3-b]pyridin-3-yl)pyridin-2-yl]amino}cyclohexyl)pyridine-3-sulfonamide] yielded a Ki of less than 10 nM.

In turn, `CC(C)NC(=O)NC1CCCC(Nc2cc(-c3c[nH]c4ncccc34)cc(Cl)n2)C1` (stereo not drawn) [Example 301, 1-(3-{[6-chloro-4-(1H-pyrrolo[2,3-b]pyridin-3-yl)pyridin-2-yl]amino}cyclohexyl)-3-propan-2-ylurea] gave an inhibition constant (Ki) of less than 10 nM.

`CCOC(=O)CNC(=O)NC1CCCC(Nc2cc(-c3c[nH]c4ncccc34)cc(Cl)n2)C1` (stereo not drawn) [Example 302, ethyl N-[(3-{[6-chloro-4-(1H-pyrrolo[2,3-b]pyridin-3-yl)pyridin-2-yl]amino}cyclohexyl)carbamoyl]glycinate] registered a Ki of less than 10 nM.

For `O=C(NCC1CCCCC1)NC1CCCC(Nc2cc(-c3c[nH]c4ncccc34)cc(Cl)n2)C1` (stereo not drawn) [Example 303, 1-(3-{[6-chloro-4-(1H-pyrrolo[2,3-b]pyridin-3-yl)pyridin-2-yl]amino}cyclohexyl)-3-(cyclohexylmethyl)urea], the Ki was 10 to 100 nM.

With `CC(=O)c1ccc(S(=O)(=O)NCC(C)(C)CNc2cc(-c3c[nH]c4ncccc34)cc(Cl)n2)cc1` [Example 304, 4-acetyl-N-(3-{[6-chloro-4-(1H-pyrrolo[2,3-b]pyridin-3-yl)pyridin-2-yl]amino}-2,2-dimethylpropyl)benzenesulfonamide], the Ki was in the range of 10 to 100 nM.

Compound `Cc1noc(C)c1S(=O)(=O)NCC(C)(C)CNc1cc(-c2c[nH]c3ncccc23)cc(Cl)n1` [Example 305, N-(3-{[6-chloro-4-(1H-pyrrolo[2,3-b]pyridin-3-yl)pyridin-2-yl]amino}-2,2-dimethylpropyl)-3,5-dimethyl-1,2-oxazole-4-sulfonamide] had a Ki of 10 to 100 nM.

With `CC(C)(CNc1cc(-c2c[nH]c3ncccc23)cc(Cl)n1)CNS(=O)(=O)c1cccs1` [Example 306, N-(3-{[6-chloro-4-(1H-pyrrolo[2,3-b]pyridin-3-yl)pyridin-2-yl]amino}-2,2-dimethylpropyl)thiophene-2-sulfonamide], the inhibition constant Ki is 10 to 100 nM.

Take `Cc1noc(C)c1S(=O)(=O)NC1CCCC(Nc2cc(-c3c[nH]c4ncccc34)cc(Cl)n2)C1` (stereo not drawn) [Example 307, N-(3-{[6-chloro-4-(1H-pyrrolo[2,3-b]pyridin-3-yl)pyridin-2-yl]amino}cyclohexyl)-3,5-dimethyl-1,2-oxazole-4-sulfonamide]: the Ki is less than 10 nM.

In turn, `CCCNC(=O)NC1CCCC(Nc2cc(-c3c[nH]c4ncccc34)cc(Cl)n2)C1` (stereo not drawn) [Example 308, 1-(3-{[6-chloro-4-(1H-pyrrolo[2,3-b]pyridin-3-yl)pyridin-2-yl]amino}cyclohexyl)-3-propylurea] returned a Ki of less than 10 nM.

Compound `CCCS(=O)(=O)NCC(C)(C)CNc1cc(-c2c[nH]c3ncccc23)cc(Cl)n1` [Example 309, N-(3-{[6-chloro-4-(1H-pyrrolo[2,3-b]pyridin-3-yl)pyridin-2-yl]amino}-2,2-dimethylpropyl)propane-1-sulfonamide] displayed a Ki of less than 10 nM.

`CC(=O)Nc1cc(-c2c[nH]c3ncccc23)cc(Cl)n1` [Example 310, N-[6-chloro-4-(1H-pyrrolo[2,3-b]pyridin-3-yl)pyridin-2-yl]acetamide] displayed an inhibition constant (Ki) of less than 10 nM.

As to `CC(C)S(=O)(=O)N[C@H]1CC[C@H](Nc2cc(-c3c[nH]c4ncccc34)cc(Cl)n2)CC1` [Example 311, N-(trans-4-{[6-chloro-4-(1H-pyrrolo[2,3-b]pyridin-3-yl)pyridin-2-yl]amino}cyclohexyl)propane-2-sulfonamide], the Ki is less than 10 nM.

`CCS(=O)(=O)N[C@H]1CC[C@H](Nc2cc(-c3c[nH]c4ncccc34)cc(Cl)n2)CC1` [Example 312, N-(trans-4-{[6-chloro-4-(1H-pyrrolo[2,3-b]pyridin-3-yl)pyridin-2-yl]amino}cyclohexyl)ethanesulfonamide]: the Ki is less than 10 nM.

The compound `CCCCS(=O)(=O)NCCNc1cc(-c2c[nH]c3ncccc23)cc(Cl)n1` [Example 313, N-(2-{[6-chloro-4-(1H-pyrrolo[2,3-b]pyridin-3-yl)pyridin-2-yl]amino}ethyl)butane-1-sulfonamide] came in with a Ki of less than 10 nM.

Consider `O=S(=O)(NCCNc1cc(-c2c[nH]c3ncccc23)cc(Cl)n1)c1cccs1` [Example 314, N-(2-{[6-chloro-4-(1H-pyrrolo[2,3-b]pyridin-3-yl)pyridin-2-yl]amino}ethyl)thiophene-2-sulfonamide], for which the Ki was less than 10 nM.

Turning to `CN1CCCC(Nc2cc(-c3c[nH]c4ncccc34)cc(Cl)n2)C1` (stereo not drawn) [Example 315, 6-chloro-N-(1-methylpiperidin-3-yl)-4-(1H-pyrrolo[2,3-b]pyridin-3-yl)pyridin-2-amine], the inhibition constant (Ki) is less than 10 nM.

On to `O=C(C1CC1)N1CCCC(CNc2cc(-c3c[nH]c4ncccc34)cc(Cl)n2)C1` (stereo not drawn) [Example 316, [3-({[6-chloro-4-(1H-pynolo[2,3-b]pyridin-3-yl)pyridin-2-yl]amino}methyl)piperidin-1-yl](cyclopropyl)methanone], for which the inhibition constant (Ki) was less than 10 nM.

Compound `O=C(C1CC1)N1CCCC(CN(C(=O)C2CC2)c2cc(-c3c[nH]c4ncccc34)cc(Cl)n2)C1` (stereo not drawn) [Example 317, N-[6-chloro-4-(1H-pyrrolo[2,3-b]pyridin-3-yl)pyridin-2-yl]-N-{[1-(cyclopropylcarbonyl)piperidin-3-yl]methyl}cyclopropanecarboxamide] returned an inhibition constant (Ki) of 10 to 100 nM.

`Clc1cc(-c2c[nH]c3ncccc23)cc(NCC2CCCN(CC3CC3)C2)n1` (stereo not drawn) [Example 318, 6-chloro-N-{[1-(cyclopropylmethyl)piperidin-3-yl]methyl}-4-(1H-pyrrolo[2,3-b]pyridin-3-yl)pyridin-2-amine]: the Ki fell in the range of 10 to 100 nM.

Consider `Clc1cc(-c2c[nH]c3ncccc23)cc(NC2CCCN(CC3CC3)C2)n1` (stereo not drawn) [Example 319, 6-chloro-N-[1-(cyclopropylmethyl)piperidin-3-yl]-4-(1H-pyrrolo[2,3-b]pyridin-3-yl)pyridin-2-amine], for which the Ki is less than 10 nM.

Turning to `O=C(Cc1cc2ccccc2[nH]1)Nc1cc(-c2c[nH]c3ncccc23)cc(Cl)n1` [Example 320, N-[6-chloro-4-(1H-pyrrolo[2,3-b]pyridin-3-yl)pyridin-2-yl]-2-(1H-indol-2-yl)acetamide], the Ki fell in the range of 10 to 100 nM.

With `Clc1cc(-c2c[nH]c3ncccc23)cc(N[C@H]2CC[C@H](NC3CCCC3)CC2)n1` [Example 321, trans-N-[6-chloro-4-(1H-pyrrolo[2,3-b]pyridin-3-yl)pyridin-2-yl]-N′-cyclopentylcyclohexane-1,4-diamine], the inhibition constant (Ki) was less than 10 nM.

Compound `CC(C)CN[C@H]1CC[C@H](Nc2cc(-c3c[nH]c4ncccc34)cc(Cl)n2)CC1` [Example 322, trans-N-[6-chloro-4-(1H-pyrrolo[2,3-b]pyridin-3-yl)pyridin-2-yl]-N′-(2-methylpropyl)cyclohexane-1,4-diamine] came in with a Ki of less than 10 nM.

`Clc1cc(-c2c[nH]c3ncccc23)cc(NC2CCCC(N3CCCC3)C2)n1` (stereo not drawn) [Example 323, 6-chloro-N-[3-(pyrrolidin-1-yl)cyclohexyl]-4-(1H-pyrrolo[2,3-b]pyridin-3-yl)pyridin-2-amine] yielded a Ki of less than 10 nM.

Compound `Clc1cc(-c2c[nH]c3ncccc23)cc(NC2CCCC(N3CCCCC3)C2)n1` (stereo not drawn) [Example 324, 6-chloro-N-[3-(piperidin-1-yl)cyclohexyl]-4-(1H-pyrrolo[2,3-b]pyridin-3-yl)pyridin-2-amine] yielded a Ki of less than 10 nM.

In the case of `CNCC(=O)N[C@H]1CC[C@H](Nc2cc(-c3c[nH]c4ncccc34)cc(Cl)n2)CC1` [Example 325, N-(trans-4-{[6-chloro-4-(1H-pyrrolo[2,3-b]pyridin-3-yl)pyridin-2-yl]amino}cyclohexyl)-N~2~-methylglycinamide], the inhibition constant Ki is less than 10 nM.
